One data set deals with D(2) dopamine receptor (Rattus norvegicus, UniProt P61169). Kind of data set: Displacement of [3H]spiperone from dopaminergic D2 receptor in rat striatum homogenates after 60 mins by liquid scintillation counting.
The target in data set [1] is 5-hydroxytryptamine receptor 2A (Rattus norvegicus, UniProt P14842). Kind of data set: Displacement of [3H]ketanserine from 5-HT2A receptor in rat cerebral cortex homogenates after 60 mins by liquid scintillation counting. The format is tissue-based.
Sequence of 5-hydroxytryptamine receptor 2A (P14842 whole entry): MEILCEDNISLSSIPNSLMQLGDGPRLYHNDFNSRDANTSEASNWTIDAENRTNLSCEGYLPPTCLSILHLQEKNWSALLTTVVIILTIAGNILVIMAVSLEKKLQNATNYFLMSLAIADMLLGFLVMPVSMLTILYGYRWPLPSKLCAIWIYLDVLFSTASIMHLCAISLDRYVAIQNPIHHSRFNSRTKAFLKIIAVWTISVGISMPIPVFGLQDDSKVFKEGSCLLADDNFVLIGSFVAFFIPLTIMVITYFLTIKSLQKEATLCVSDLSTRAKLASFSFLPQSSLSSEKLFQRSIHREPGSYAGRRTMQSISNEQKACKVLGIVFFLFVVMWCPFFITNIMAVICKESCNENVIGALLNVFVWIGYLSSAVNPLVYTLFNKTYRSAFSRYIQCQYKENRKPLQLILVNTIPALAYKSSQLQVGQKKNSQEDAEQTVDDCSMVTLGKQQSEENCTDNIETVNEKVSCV
In data set [2] the target is T1, 5-hydroxytryptamine receptor 1A (Rattus norvegicus, UniProt P19327).
T1 sequence (P19327 whole entry): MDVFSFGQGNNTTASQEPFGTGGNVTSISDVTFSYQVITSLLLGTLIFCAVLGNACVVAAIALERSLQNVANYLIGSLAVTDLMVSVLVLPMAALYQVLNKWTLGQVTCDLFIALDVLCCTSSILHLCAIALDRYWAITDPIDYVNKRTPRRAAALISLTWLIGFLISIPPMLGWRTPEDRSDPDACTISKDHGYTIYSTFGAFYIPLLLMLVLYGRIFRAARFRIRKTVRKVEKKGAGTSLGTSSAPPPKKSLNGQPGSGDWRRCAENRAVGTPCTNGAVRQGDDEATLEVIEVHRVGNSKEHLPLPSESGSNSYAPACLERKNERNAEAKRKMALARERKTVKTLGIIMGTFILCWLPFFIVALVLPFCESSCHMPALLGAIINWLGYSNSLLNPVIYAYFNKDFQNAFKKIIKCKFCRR
The data set can be described thus: Displacement of [3H]8-OH-DPAT from 5-HT1A receptor in rat cerebral cortex homogenates after 60 mins by liquid scintillation counting. Format: tissue-based.

In data set [3] the test system is Mus musculus. The data set can be described thus: Neurotoxicity in Chinese Kun Ming mouse assessed as locomotor activity by measuring total distance traveled at 0.1 mg/kg, po administered 1 hr before test measured for 10 mins (reference value: 13415.6 +/- 9555.8 millimeter). To be noted: in vivo. The format is toxicity, organism-based.
The test system of data set [4] is Mus musculus. Kind of data set: Neurotoxicity in Chinese Kun Ming mouse assessed as locomotor activity by measuring total distance traveled at 1 mg/kg, po administered 1 hr before test measured for 10 mins (reference value: 13415.6 +/- 9555.8 millimeter). Format: toxicity, organism-based. To be noted: in vivo.
For data set [5], the system named is Mus musculus. Kind of data set: Neurotoxicity in Chinese Kun Ming mouse assessed as locomotor activity by measuring total distance traveled at 0.3 mg/kg, po administered 1 hr before test measured for 10 mins (reference value: 13415.6 +/- 9555.8 millimeter). Format: toxicity, organism-based. The conditions noted are these: in vivo.
Data set [6] has as its target Voltage-gated inwardly rectifying potassium channel KCNH2 (Homo sapiens, UniProt Q12809). The data set can be described thus: Inhibition of human ERG expressed in HEK293 cells by whole-cell patch clamp method. Format: cell-based.
Data set [7] in a line: Acute toxicity in Sprague-Dawley rat. Format: organism-based. To be noted: in vivo.
In data set [8] the test system is Mus musculus. Kind of data set: Antipsychotic activity in po dosed Chinese Kun Ming mouse assessed as inhibition of apomorphine-induced climbing administered 30 mins before apomorphine challenge measured up to 30 mins. Format: functional.
For data set [9], the system named is Mus musculus. Kind of data set: Toxicity in po dosed Chinese Kun Ming mouse assessed as induction of catalepsy by measuring immobility score of 30 seconds administered 30 mins before first assessment. The conditions noted are these: in vivo, 0.5 h. The format is organism-based.
In data set [10] the test system is Mus musculus. Kind of data set: Antipsychotic activity in po dosed Chinese Kun Ming mouse assessed as inhibition of DOI-induced head twitch administered 60 mins before DOI challenge measured up to 15 mins. The format is functional.
In data set [11] the test system is Mus musculus. The data set can be described thus: Neurotoxicity in Chinese Kun Ming mouse assessed as locomotor activity by measuring total distance traveled at 1 mg/kg, po administered 1 hr before test measured for 10 mins (reference value: 13881.4 +/- 8595.8 millimeter). The format is toxicity, organism-based. To be noted: in vivo.
For data set [12], the system named is Mus musculus. Kind of data set: Neurotoxicity in Chinese Kun Ming mouse assessed as locomotor activity by measuring total distance traveled at 10 mg/kg, po administered 1 hr before test measured for 10 mins (reference value: 13881.4 +/- 8595.8 millimeter). To be noted: in vivo. The format is toxicity, organism-based.
The subject of data set [13] is Mus musculus. The data set can be described thus: Neurotoxicity in Chinese Kun Ming mouse assessed as locomotor activity by measuring total distance traveled at 3 mg/kg, po administered 1 hr before test measured for 10 mins (reference value: 13881.4 +/- 8595.8 millimeter). The format is toxicity, organism-based. The conditions noted are these: in vivo.

Each structure is given as a SMILES string. Where only a bound is given, the exact number is not on record here.

Sequence of D(2) dopamine receptor (P61169 whole entry): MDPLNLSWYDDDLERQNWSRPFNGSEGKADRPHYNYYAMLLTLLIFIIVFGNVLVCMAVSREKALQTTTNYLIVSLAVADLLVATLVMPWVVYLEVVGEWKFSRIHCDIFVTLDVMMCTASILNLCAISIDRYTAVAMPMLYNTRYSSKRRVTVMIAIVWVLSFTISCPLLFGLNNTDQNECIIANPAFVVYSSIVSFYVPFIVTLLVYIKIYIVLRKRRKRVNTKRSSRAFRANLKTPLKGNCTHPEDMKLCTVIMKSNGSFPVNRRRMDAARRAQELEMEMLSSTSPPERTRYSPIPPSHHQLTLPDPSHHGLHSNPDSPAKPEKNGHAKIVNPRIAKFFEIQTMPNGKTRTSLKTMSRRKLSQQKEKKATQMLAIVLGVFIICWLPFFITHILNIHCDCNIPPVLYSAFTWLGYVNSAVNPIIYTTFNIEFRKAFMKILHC
Sequence of Voltage-gated inwardly rectifying potassium channel KCNH2 (Q12809 whole entry): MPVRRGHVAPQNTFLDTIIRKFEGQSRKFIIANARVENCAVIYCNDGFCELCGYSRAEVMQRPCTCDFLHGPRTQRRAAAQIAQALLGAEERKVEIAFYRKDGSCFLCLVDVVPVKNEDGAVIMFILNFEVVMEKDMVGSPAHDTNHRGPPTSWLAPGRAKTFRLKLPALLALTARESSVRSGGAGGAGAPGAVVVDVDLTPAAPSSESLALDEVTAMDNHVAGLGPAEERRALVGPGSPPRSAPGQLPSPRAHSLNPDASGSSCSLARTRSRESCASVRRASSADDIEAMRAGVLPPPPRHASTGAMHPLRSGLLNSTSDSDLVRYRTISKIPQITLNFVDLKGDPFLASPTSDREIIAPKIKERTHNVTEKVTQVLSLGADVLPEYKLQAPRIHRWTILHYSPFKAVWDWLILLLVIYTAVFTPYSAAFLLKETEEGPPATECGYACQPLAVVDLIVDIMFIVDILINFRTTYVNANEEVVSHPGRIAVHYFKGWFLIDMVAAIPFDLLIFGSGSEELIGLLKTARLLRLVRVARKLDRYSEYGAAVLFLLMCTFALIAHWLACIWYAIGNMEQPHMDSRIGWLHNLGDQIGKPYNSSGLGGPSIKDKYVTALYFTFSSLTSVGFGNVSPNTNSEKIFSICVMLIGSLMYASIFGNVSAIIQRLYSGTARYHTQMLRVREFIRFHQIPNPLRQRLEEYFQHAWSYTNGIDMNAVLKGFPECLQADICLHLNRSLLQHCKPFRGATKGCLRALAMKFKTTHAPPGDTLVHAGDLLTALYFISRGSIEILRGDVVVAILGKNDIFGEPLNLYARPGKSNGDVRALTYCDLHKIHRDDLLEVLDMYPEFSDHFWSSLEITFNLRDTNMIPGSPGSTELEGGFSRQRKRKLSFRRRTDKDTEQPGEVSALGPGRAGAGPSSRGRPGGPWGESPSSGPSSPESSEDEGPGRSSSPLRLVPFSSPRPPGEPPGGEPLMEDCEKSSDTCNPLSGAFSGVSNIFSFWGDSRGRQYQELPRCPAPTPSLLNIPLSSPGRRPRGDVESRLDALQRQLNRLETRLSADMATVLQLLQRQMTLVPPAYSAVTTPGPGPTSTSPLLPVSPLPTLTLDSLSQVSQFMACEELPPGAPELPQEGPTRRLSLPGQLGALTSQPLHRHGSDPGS

Consider `c1ccc(N2CCN(CCCOc3ccc(-c4nc5ccccc5o4)cc3)CC2)nc1`, for which the Ki at D(2) dopamine receptor is over 10000 nM; in data set [1], 2340 nM; in data set [2], 1990 nM.
Turning to `O=C(CCCN1CCC(O)(c2ccc(Cl)cc2)CC1)c1ccc(F)cc1` [HALOPERIDOL], the Activity in the data set with Mus musculus [3] is recorded as 8980.9 mm; in the data set on Mus musculus [4] it was 744.5 mm; in the data set on Mus musculus [5], 3580.6 mm.
`c1cnc(N2CCN(CCCOc3ccc(-c4nc5ccccc5o4)cc3)CC2)nc1`: the Ki was found to be 198 nM at D(2) dopamine receptor, 38.5 nM in data set [1] and 56.2 nM in [2].
The corresponding values for `c1ccc2c(c1)OCC(CN1CCN(CCCOc3ccc(-c4nc5ccccc5o4)cc3)CC1)O2` (stereo unspecified) are over 10000 nM, 1420 nM and over 10000 nM.
For the compound `Fc1ccc2c(C3CCN(CCCOc4cccc(-c5nc6ccccc6o5)c4)CC3)noc2c1`, the Ki (on D(2) dopamine receptor; in data set [1]; in data set [2]) was over 10000 nM throughout.
Take `FC(F)(F)c1cccc(N2CCN(CCCOc3ccc(-c4nc5ccccc5o4)cc3)CC2)c1`: the values for the Ki (on D(2) dopamine receptor; in data set [1]; in data set [2]) were over 10000 nM, 4480 nM and over 10000 nM, respectively.
Regarding `Fc1ccc2c(C3CCN(CCCCOc4ccc(-c5nc6ccccc6o5)cc4)CC3)noc2c1`, the Ki on D(2) dopamine receptor was 2200 nM; in [1], 729 nM; in data set [2], 996 nM.
On to `CC(c1ccc(OCCCN2CCC(c3noc4cc(F)ccc34)CC2)cc1)c1nc2ccccc2o1` (stereo unspecified), for which the IC50 in data set [6] came out at 1010 nM. Further, the values for the Ki (on D(2) dopamine receptor; in data set [1]; in [2]) were 60.3 nM, 30.5 nM and 89.6 nM, respectively. Besides, the LD50 in [7] is 614 mg/kg.
Take `c1ccc2oc(-c3ccc(OCCCN4CCN(c5nsc6ccccc56)CC4)cc3)nc2c1`: the Ki at D(2) dopamine receptor stood at 879 nM; in [1], 16.9 nM; in data set [2], 970 nM.
On to `Fc1ccc2c(C3CCN(CCCOc4ccc(-c5nc6ccccc6o5)c(F)c4)CC3)noc2c1`, for which the Ki was found to be 143 nM on D(2) dopamine receptor, 23.7 nM in data set [1] and 232 nM in [2].
The corresponding values for `Cc1cccc(N2CCN(CCCOc3ccc(-c4nc5ccccc5o4)cc3)CC2)c1C` are over 10000 nM, 2140 nM and 4690 nM.
Consider `O=C(c1ccc(F)cc1F)C1CCN(CCCOc2ccc(-c3nc4ccccc4o3)cc2)CC1`, for which the Ki turned out to be 408 nM on D(2) dopamine receptor, 199 nM in [1] and 114 nM in [2]. This compound came in with a 50% lethal dose (LD50) in data set [7] of 369 mg/kg.
As to `c1ccc(N2CCN(CCCOc3ccc(-c4nc5ccccc5o4)cc3)CC2)cc1`, the values for the Ki (at D(2) dopamine receptor; in [1]; in data set [2]) were over 10000 nM, 4680 nM and over 10000 nM, respectively.
Turning to `c1ccc2oc(-c3ccc(OCCCN4CCC(c5nc6ccccc6o5)CC4)cc3)nc2c1`, the Ki at D(2) dopamine receptor is over 10000 nM; in data set [1], 243 nM; in data set [2], 568 nM.
`CN1CCN(C2=Nc3cc(Cl)ccc3Nc3ccccc32)CC1` [CLOZAPINE]: the ED50 with Mus musculus [8] is 3.51 mg/kg; in the data set on Mus musculus [9], 50.5 mg/kg; with Mus musculus [10], 4.92 mg/kg.
The compound `Fc1ccc2c(C3CCN(CCCOc4ccc(CCc5nc6ccccc6o5)cc4)CC3)noc2c1` returned an IC50 in data set [6] of 630 nM. Besides, the Ki on D(2) dopamine receptor is 53.1 nM; in data set [1], 38.1 nM; in data set [2] it was 31.1 nM. In data set [7], the LD50 worked out at 398 mg/kg.
On to `COc1ccccc1N1CCN(CCCOc2ccc(-c3nc4ccccc4[nH]3)cc2)CC1`, for which the Ki on D(2) dopamine receptor was found to be 16.3 nM; in [1], 109 nM; in data set [2], 258 nM.
On to `Cc1nc2n(c(=O)c1CCN1CCC(c3noc4cc(F)ccc34)CC1)CCCC2` [RISPERIDONE], for which the ED50 in the data set on Mus musculus [8] worked out at 0.034 mg/kg; with Mus musculus [9], 1.3 mg/kg; in the data set on Mus musculus [10], 0.045 mg/kg.
Consider `Cc1ccc2oc(-c3ccc(OCCCN4CCC(c5noc6cc(F)ccc56)CC4)cc3)nc2c1`, for which the inhibitory constant (Ki) was over 10000 nM on D(2) dopamine receptor, over 10000 nM in [1] and 76.3 nM in data set [2].
With `Fc1ccc2c(C3CCN(CCCOc4ccc(-c5nc6ccccc6s5)cc4)CC3)noc2c1`, the Ki at D(2) dopamine receptor is over 10000 nM; in data set [1], 1270 nM; in [2], 1760 nM.
The corresponding values for `COc1cc(OCCCN2CCC(c3noc4cc(F)ccc34)CC2)ccc1-c1nc2ccccc2o1` are 1190 nM, 72.2 nM and 1560 nM.
The corresponding values for `COc1ccccc1N1CCN(CCCOc2ccc(-c3nc4ccccc4o3)cc2)CC1` are 467 nM, 29.3 nM and 46.8 nM.
Consider `Clc1cccc(N2CCN(CCCOc3ccc(-c4nc5ccccc5o4)cc3)CC2)c1Cl`, for which the Ki is over 10000 nM on D(2) dopamine receptor, 2890 nM in [1] and over 10000 nM in data set [2].
As to `c1ccc2oc(-c3ccc(OCCCN4CCC(c5nc6ccccc6s5)CC4)cc3)nc2c1`, the values for the Ki (on D(2) dopamine receptor; in data set [1]; in [2]) were over 10000 nM, 281 nM and 146 nM, respectively.
On to `Fc1ccc2c(C3CCN(CCCOc4ccc(-c5nc6cc(Cl)ccc6o5)cc4)CC3)noc2c1`, for which the Ki on D(2) dopamine receptor was 660 nM; in data set [1], 135 nM; in data set [2] it was over 10000 nM.
The corresponding values for `Cc1cc(-c2nc3ccccc3o2)ccc1OCCCN1CCC(c2noc3cc(F)ccc23)CC1` are 1590 nM, 41.1 nM and 2140 nM.
Take `O=C1CN=C(c2ccccc2Cl)c2cc([N+](=O)[O-])ccc2N1` [CLONAZEPAM]: the values for the Activity in the data set with Mus musculus [11], in the data set on Mus musculus [12] and in the data set with Mus musculus [13] were 13188.4 mm, 655.7 mm and 4784.1 mm, respectively.

(Values after ChEMBL document CHEMBL3632483, “Synthesis and pharmacological evaluation of piperidine (piperazine)-substituted benzoxazole derivatives as multi-target antipsychotics” (Bioorg Med Chem Lett, 2015).)
